Data reported in US11957661B2, “JAK1 pathway inhibitors for the treatment of vitiligo” (Incyte Corporation, priority 2020, dated 2024).

Tests used:
[1] = biological target: human JAK1 (Homo sapiens, UniProt P23458); assay: In vitro JAK kinase assay (HTRF, Example A); format: biochemical; settings: 1 mM ATP
Experimental: (§1) The catalytic activity of JAK1, JAK2 or JAK3 was assayed by measuring the phosphorylation of a biotinylated peptide. The phosphorylated peptide was detected by homogenous time resolved fluorescence (HTRF). […] Reactions were carried out at room temperature for 1 hour and then stopped with 20 μL 45 mM EDTA, 300 nM SA-APC, 6 nM Eu-Py20 in assay buffer (Perkin Elmer, Boston, MA). Binding to the Europium labeled antibody took place for 40 minutes and HTRF signal was measured on a Fusion plate reader (Perkin Elmer, Boston, MA).

[2] = biological target: human JAK2 (Homo sapiens (Human), UniProt O60674); assay: In vitro JAK kinase assay (HTRF, Example A); format: biochemical; settings: JAK2/JAK1 IC50 ratio, 1 mM ATP
Sequence of human JAK2 (O60674 828-1132): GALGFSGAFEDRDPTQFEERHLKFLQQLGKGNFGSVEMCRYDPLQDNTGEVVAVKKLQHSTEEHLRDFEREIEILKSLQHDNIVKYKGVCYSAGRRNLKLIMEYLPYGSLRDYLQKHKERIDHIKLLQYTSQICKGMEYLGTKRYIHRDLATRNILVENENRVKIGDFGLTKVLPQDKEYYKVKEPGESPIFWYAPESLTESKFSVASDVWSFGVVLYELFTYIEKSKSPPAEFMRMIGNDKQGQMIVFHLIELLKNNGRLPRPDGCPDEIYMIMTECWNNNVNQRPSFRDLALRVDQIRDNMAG
Experimental: as §1

SMILES | IC50 [1] | JAK2/JAK1 [2]
N#CCC(C1CCN(c2cccc(Cl)n2)C1)n1cc(-c2ncnc3[nH]ccc23)cn1 (single isomer, unassigned) [Compound 6, 3-[1-(6-chloropyridin-2-yl)pyrrolidin-3-yl]-3-[4-(7H-pyrrolo[2,3-d]pyrimidin-4-yl)-1H-pyrazol-1-yl]propanenitrile] | < 10 nM | >10
N#CCC1(n2cc(-c3ncnc4[nH]ccc34)cn2)CN(C2CCN(C(=O)Nc3ccc(F)cc3C(F)(F)F)CC2)C1 [Compound 2, 4-{3-(Cyanomethyl)-3-[4-(7H-pyrrolo[2,3-d]pyrimidin-4-yl)-1H-pyrazol-1-yl]azetidin-1-yl}-N-[4-fluoro-2-(trifluoromethyl)phenyl]pipe-ridine-1-carboxamide] | < 10 nM | >10
N#CCC1(n2cc(-c3ncnc4[nH]ccc34)cn2)CN(C2CCN(C(=O)c3ccnc(C(F)(F)F)n3)CC2)C1 [Compound 3, [3-[4-(7H-pyrrolo[2,3-d]pyrimidin-4-yl)-1H-pyrazol-1-yl]-1-(1-{[2-(trifluoromethyl)pyrimidin-4-yl]carbonyl}piperidin-4-yl)azetidin-3-yl]acetonitrile] | < 10 nM | >10
N#CCC1(n2cc(-c3ncnc4[nH]ccc34)cn2)CN(C2CCN(C(=O)c3ccnc(C(F)(F)F)c3F)CC2)C1 [Compound 4, {1-{1-[3-Fluoro-2-(trifluoromethyl)isonicotinoyl]piperidin-4-yl}-3-[4-(7H-pyrrolo[2,3-d]pyrimidin-4-yl)-1H-pyrazol-1-yl]azetidin-3-yl}acetonitrile] | < 10 nM | >10
C[C@@H](O)c1nc2cnc3ccsc3c2n1[C@H]1CC[C@H](CC#N)OC1 [Compound 5, ((2R,5S)-5-{2-[(1R)-1-hydroxyethyl]-1H-imidazo[4,5-d]thieno[3,2-b]pyridin-1-yl}tetrahydro-2H-pyran-2-yl)acetonitrile] | < 100 nM | >10
N#CCC(C1CCN(c2nc3cccnc3o2)C1)n1cc(-c2ncnc3[nH]ccc23)cn1 (centres unmarked) [Compound 7, 3-(1-[1,3]oxazolo[5,4-b]pyridin-2-ylpyrrolidin-3-yl)-3-[4-(7H-pyrrolo[2,3-d]pyrimidin-4-yl)-1H-pyrazol-1-yl]propanenitrile] | < 10 nM | >10
N#CCC(CN1CCN(C(=O)c2ccc(C#N)cc2F)CC1)n1cc(-c2ncnc3[nH]ccc23)cn1 (centres unmarked) [Compound 8, 4-[(4-{3-cyano-2-[4-(7H-pyrrolo[2,3-d]pyrimidin-4-yl)-1H-pyrazol-1-yl]propyl}piperazin-1-yl)carbonyl]-3-fluorobenzonitrile] | < 10 nM | >10
N#CCC(CN1CCN(C(=O)c2ccc(C#N)cc2F)CC1)n1ccc(-c2ncnc3[nH]ccc23)c1 (centres unmarked) [Compound 9, 4-[(4-{3-cyano-2-[3-(7H-pyrrolo[2,3-d]pyrimidin-4-yl)-1H-pyrrol-1-yl]propyl}piperazin-1-yl)carbonyl]-3-fluorobenzonitrile] | < 10 nM | >10
N#CC[C@]1(n2cc(-c3ncnc4[nH]ccc34)cn2)C[C@H](N2CCN(C(=O)c3ccnc(C(F)(F)F)n3)CC2)C1 [Compound 10, [trans-1-[4-(7H-pyrrolo[2,3-d]pyrimidin-4-yl)-1H-pyrazol-1-yl]-3-(4-{[2-(trifluoromethyl)pyrimidin-4-yl]carbonyl}piperazin-1-yl)cyclobutyl]acetonitrile] | < 10 nM | >10
N#CC[C@]1(n2cc(-c3ncnc4[nH]ccc34)cn2)C[C@H](N2CCC(Oc3cc(CN4CC(O)C4)cc(C(F)(F)F)n3)CC2)C1 [Compound 11, {trans-3-(4-{[4-[(3-hydroxyazetidin-1-yl)methyl]-6-(trifluoromethyl)pyridin-2-yl]oxy}piperidin-1-yl)-1-[4-(7H-pyrrolo[2,3-d]pyrimidin-4-yl)-1H-pyrazol-1-yl]cyclobutyl}acetonitrile] | < 10 nM | >10
N#CC[C@]1(n2cc(-c3ncnc4[nH]ccc34)cn2)C[C@H](N2CCC(Oc3cc(CN4CCC[C@H]4CO)cc(C(F)(F)F)n3)CC2)C1 [Compound 12, {trans-3-(4-{[4-{[(2S)-2-(hydroxymethyl)pyrrolidin-1-yl]methyl}-6-(trifluoromethyl)pyridin-2-yl]oxy}piperidin-1-yl)-1-[4-(7H-pyrrolo[2,3-d]pyrimidin-4-yl)-1H-pyrazol-1-yl]cyclobutyl}acetonitrile] | < 10 nM | >10
N#CC[C@]1(n2cc(-c3ncnc4[nH]ccc34)cn2)C[C@H](N2CCC(Oc3cc(CN4CCC[C@@H]4CO)cc(C(F)(F)F)n3)CC2)C1 [Compound 13, {trans-3-(4-{[4-{[(2R)-2-(hydroxymethyl)pyrrolidin-1-yl]methyl}-6-(trifluoromethyl)pyridin-2-yl]oxy}piperidin-1-yl)-1-[4-(7H-pyrrolo[2,3-d]pyrimidin-4-yl)-1H-pyrazol-1-yl]cyclobutyl}acetonitrile] | < 10 nM | >10
C[C@H](NC(=O)c1cc(F)c(N2CC(CC#N)(n3cc(-c4ncnc5[nH]ccc45)cn3)C2)cc1F)C(F)(F)F [Compound 16, 4-{3-(cyanomethyl)-3-[4-(7H-pyrrolo[2,3-d]pyrimidin-4-yl)-1H-pyrazol-1-yl]azetidin-1-yl}-2,5-difluoro-N-[(1S)-2,2,2-trifluoro-1-methylethyl]benzamide] | < 10 nM | >10
N#CCC1(n2cc(-c3ncnc4[nH]ccc34)cn2)CN([C@H]2CC[C@@H](Oc3cc(CCO)nc(C(F)(F)F)n3)CC2)C1 [Compound 18, {1-(cis-4-{[6-(2-hydroxyethyl)-2-(trifluoromethyl)pyrimidin-4-yl]oxy}cyclohexyl)-3-[4-(7H-pyrrolo[2,3-d]pyrimidin-4-yl)-1H-pyrazol-1-yl]azetidin-3-yl}acetonitrile] | < 10 nM | >10
CCNCc1cc(O[C@H]2CC[C@@H](N3CC(CC#N)(n4cc(-c5ncnc6[nH]ccc56)cn4)C3)CC2)nc(C(F)(F)F)c1 [Compound 19, {1-(cis-4-{[4-[(ethylamino)methyl]-6-(trifluoromethyl)pyridin-2-yl]oxy}cyclohexyl)-3-[4-(7H-pyrrolo[2,3-d]pyrimidin-4-yl)-1H-pyrazol-1-yl]azetidin-3-yl}acetonitrile] | < 10 nM | >10
CC(C)(O)c1cc(O[C@H]2CC[C@@H](N3CC(CC#N)(n4cc(-c5ncnc6[nH]ccc56)cn4)C3)CC2)nc(C(F)(F)F)c1 [Compound 20, {1-(cis-4-{[4-(1-hydroxy-1-methylethyl)-6-(trifluoromethyl)pyridin-2-yl]oxy}cyclohexyl)-3-[4-(7H-pyrrolo[2,3-d]pyrimidin-4-yl)-1H-pyrazol-1-yl]azetidin-3-yl}acetonitrile] | < 10 nM | >10
N#CCC1(n2cc(-c3ncnc4[nH]ccc34)cn2)CN([C@H]2CC[C@@H](Oc3cc(CN4CC[C@@H](O)C4)cc(C(F)(F)F)n3)CC2)C1 [Compound 21, {1-(cis-4-{[4-{[(3R)-3-hydroxypyrrolidin-1-yl]methyl}-6-(trifluoromethyl)pyridin-2-yl]oxy}cyclohexyl)-3-[4-(7H-pyrrolo[2,3-d]pyrimidin-4-yl)-1H-pyrazol-1-yl]azetidin-3-yl}acetonitrile] | < 10 nM | >10
N#CCC1(n2cc(-c3ncnc4[nH]ccc34)cn2)CN([C@H]2CC[C@@H](Oc3cc(CN4CC[C@H](O)C4)cc(C(F)(F)F)n3)CC2)C1 [Compound 22, {1-(cis-4-{[4-{[(3S)-3-hydroxypyrrolidin-1-yl]methyl}-6-(trifluoromethyl)pyridin-2-yl]oxy}cyclohexyl)-3-[4-(7H-pyrrolo[2,3-d]pyrimidin-4-yl)-1H-pyrazol-1-yl]azetidin-3-yl}acetonitrile] | < 10 nM | >10
C[C@@H](CO)NCc1cc(OC2CCN([C@H]3C[C@](CC#N)(n4cc(-c5ncnc6[nH]ccc56)cn4)C3)CC2)nc(C(F)(F)F)c1 [Compound 23, {trans-3-(4-{[4-({[(1S)-2-hydroxy-1-methylethyl]amino}methyl)-6-(trifluoromethyl)pyridin-2-yl]oxy}piperidin-1-yl)-1-[4-(7H-pyrrolo[2,3-d]pyrimidin-4-yl)-1H-pyrazol-1-yl]cyclobutyl}acetonitrile] | < 10 nM | >10
C[C@@H](O)CNCc1cc(OC2CCN([C@H]3C[C@](CC#N)(n4cc(-c5ncnc6[nH]ccc56)cn4)C3)CC2)nc(C(F)(F)F)c1 [Compound 24, {trans-3-(4-{[4-({[(2R)-2-hydroxypropyl]amino}meth-yl)-6-(trifluoromethyl)pyridin-2-yl]oxy}piperidin-1-yl)-1-[4-(7H-pyrrolo[2,3-d]pyrimidin-4-yl)-1H-pyrazol-1-yl]cyclobutyl}acetonitrile] | < 10 nM | >10
C[C@H](O)CNCc1cc(OC2CCN([C@H]3C[C@](CC#N)(n4cc(-c5ncnc6[nH]ccc56)cn4)C3)CC2)nc(C(F)(F)F)c1 [Compound 25, {trans-3-(4-{[4-({[(2S)-2-hydroxypropyl]amino}meth-yl)-6-(trifluoromethyl)pyridin-2-yl]oxy}piperidin-1-yl)-1-[4-(7H-pyrrolo[2,3-d]pyrimidin-4-yl)-1H-pyrazol-1-yl]cyclobutyl}acetonitrile] | < 10 nM | >10
N#CC[C@]1(n2cc(-c3ncnc4[nH]ccc34)cn2)C[C@H](N2CCC(Oc3cc(CCO)cc(C(F)(F)F)n3)CC2)C1 [Compound 26, {trans-3-(4-{[4-(2-hydroxyethyl)-6-(trifluoromethyl)pyridin-2-yl]oxy}piperidin-1-yl)-1-[4-(7H-pyrrolo[2,3-d]pyrimidin-4-yl)-1H-pyrazol-1-yl]cyclobutyl}acetonitrile] | < 10 nM | >10
